From patent publication US12583851B2, “Heteroaryl-substituted pyrazine derivatives as pesticides” (Elanco Animal Health GmbH, priority 2019, dated 2026) come the findings set out here.

Format in all cases: in vivo
The subject of assay [1] is adult Blattella germanica strain PAULINIA
Put plainly: Blattella germanica test (BLTTGE surface treatment & contact assay). To be noted: surface concentration 20 mg/m^2, 30 minutes exposure, 24 hours after contact, read-out: mortality (efficacy). The method, then: Blattella germanica Test (BLTTGE Surface Treatment & Contact Assay)
Solvent: Aceton+2000 ppm rapeseed oil methyl ester (RME)
In order to produce a sufficient, active ingredient containing solution it is necessary to solve the test compound in the solvent-mix (acetone at 2 mg/ml/RME 2000 ppm). This solution is pipetted onto a glazed tile and after evaporation of the acetone, adult animals of the species Blattella germanica strain PAULINIA are placed onto the dried surface. The exposure time is 30 minutes.
Mortality in percent (%) is determined 24 hours after contact of the insects to the treated surface. 100% mortality means that all tested insects are dead, whereas 0% means that no insect died.

For assay [2], the system named is larvae of the banded cucumber beetle (Diabrotica balteata). Put plainly: Diabrotica balteata spray test. To be noted: 168 h, after 7 days, read-out: efficacy (seedling growth); for pest or weed control at 6.4 µg/disc, 20 g/ha: 20 g/ha (=6.4 μg/well). The procedure, abridged:
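Efficacy was read 7 days after infesting each unit with 10–20 banded cucumber beetle larvae, as % of seedlings growing like untreated, uninfested controls. Before infestation, wheat seeds germinated 1 day on agar (5 per well) were sprayed with the active ingredient. The active was formulated in acetone/DMF and diluted in water containing emulsifier.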

The test system of assay [3] is green peach aphid (Myzus persicae). Kind of assay: Myzus persicae oral test. The note with it: 120 h, 0.8 ppm, after 5 days. The method, then: Solvent: 100 parts by weight acetone
To produce a suitable preparation of active compound, 1 part by weight of active compound is mixed with the stated amount of solvent, and the concentrate is diluted with water to the desired concentration.
50 μL compound solution is filled in microtiter plates and 150 μL IPL41 insect medium (33%+15% sugar) is added to obtain a total volume of 200 μL per well. Afterwards the plates are sealed with parafilm through which a mixed population of the green peach aphid (Myzus persicae) can suck on the compound preparation.
After 5 days mortality in % is determined. 100% means all aphids have been killed and 0% means none of the aphids have been killed.

Assay [4] concerns adult brown dog ticks (Rhipicephalus sanguineus). Kind of assay: Rhipicephalus sanguineus in-vitro contact test, adult brown dog ticks. The note with it: 48 h, 5 μg/cm^2 (=500 g/ha), after 48 hours, read-out: efficacy (ticks dead or moribund). An outline of the steps: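 Acetone solution coated on glass tube inner walls (900 ppm, giving 5 μg/cm^2); after drying, 5–10 adult ticks added and kept 48 h at room temperature. Efficacy scored as percent dead or moribund, i.e., ticks unable to climb away on a 45–50 °C heating plate within 5 min.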

The subject of assay [5] is adult cat fleas (Ctenocephalides felis). Put plainly: Ctenocephalides felis in-vitro contact test, adult cat flea. The note with it: 5 μg/cm^2 (=500 g/ha), after 48 hours, read-out: efficacy (fleas dead or moribund). The procedure, abridged: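 Acetone solution coated onto glass tube walls; 900 ppm gives 5 μg/cm². Once dry, 5–10 adult fleas per tube held at room temperature for 48 h. Efficacy (%) is the share of fleas dead or moribund, i.e. unable to climb away on a 45–50° C heating plate.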

The test system of assay [6] is brown planthopper (Nilaparvata lugens). Kind of assay: Nilaparvata lugens spray test. The note with it: 96 h, 100 g/ha, rice plants, after 4 days. The procedure, abridged: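 Compound dissolved in acetone/dimethylformamide and diluted in water with 1000 ppm alkylarylpolyglycol ether emulsifier. Rice plants sprayed at the test concentration, then infested with brown planthopper; % mortality read after 4 days (100% = all killed, 0% = none).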

Take `CC(NC(=O)c1cc(Cl)cc(C(F)(F)F)c1)c1nccnc1-c1ncccn1` (racemic) [Example I-10, (rac)-3-Chloro-N-(1-(3-(pyrimidin-2-yl)pyrazin-2-yl)ethyl)-5-(trifluoromethyl)benzamide]: the mortality (commonly the share of the test organisms that died) at 20 mg/m2 in assay [1] was 80 to 100%. Besides, the pest or weed control at 6.4 µg/disc, 20 g/ha in assay [2] came out at 100%. Moreover, the pest or weed control at 32 µg/disc, 100 g/ha in assay [2] (100 g/ha (=32 μg/well)) was 100%. Besides, the mortality at 0.8 ppm in assay [3] worked out at 90%. In addition, the pest or weed control at 5 µg/cm2, 500 g/ha in assay [4] and in assay [5] was 80% throughout.

Turning to `CC(NC(=O)c1cc(C(F)(F)F)cc(C(F)(F)F)c1)c1nccnc1-c1ncccn1` (racemic) [Example I-8, (rac)-N-(1-(3-(Pyrimidin-2-yl)pyrazin-2-yl)ethyl)-3,5-bis(trifluoromethyl)benzamide], in assay [1], the mortality at 20 mg/m2 lay in the range of 80 to 100%. Moreover, the mortality at 100 g/ha in assay [6] came out at 100%. Moreover, in assay [2], the pest or weed control at 6.4 µg/disc, 20 g/ha came out at 100%. In addition, the mortality at 0.8 ppm in assay [3] stood at 100%.
